Laboratory results taken from patent US20060198889A1, “Roflumilast and integrin inhibitor combination and treatement method” (priority 2005, published 2006).

Columns and labels:
[1] = test system: mild/moderate asthmatics not treated with inhaled corticosteroids; assay: ARES study: R411 monotherapy, 12 week treatment period; format: in vivo, human; details: for Asthma control Questionnaire (Total Score), change from baseline / Morning asthma symptoms, change from baseline / Rescue β2-agonist use (puffs/d), change from baseline: ITT population
Protocol: The ARES study illustrated in FIG. 3 was designed to evaluate the safety and efficacy of monotherapy R411 over a 12 week treatment period in 480 mild/moderate asthmatics not treated with inhaled corticosteroids. Patients were randomized to one of four cohorts: 50, 200, 600 mg QD R411, or placebo (n=120/group). The primary endpoint in the study was change in FEV1 from baseline, and secondary endpoints included PEFR, asthma exacerbations, β2-agonist use, asthma control questionnaire, asthma symptom scores, and nocturnal awakenings. Small airway inflammation represents a clinically significant component of moderate to severe asthma that is not adequately controlled by currently available inhaled corticosteroids therapies.
ARES study evaluated the safety and efficacy of monotherapy with R411 over a 12-week treatment period in 479 mild/moderate asthmatics not treated with inhaled corticosteroids. Patients were randomized to one of four cohorts: 50, 200, 600 mg once daily R411, or placebo.

[2] = test system: airway inflammation in the atopic primate; assay: Airway inflammation in the atopic primate, oral R411 (FIG. 4); format: in vivo; details: oral administration, atopic primate (FIG. 4)
α4/β1 integrin = α4/β1 integrin (Homo sapiens, UniProt P05556+P13612); assay: Inhibition of α4/β1 binding to VCAM-1
α4/β1 integrin, sequence (P05556 21-798, one chain of several): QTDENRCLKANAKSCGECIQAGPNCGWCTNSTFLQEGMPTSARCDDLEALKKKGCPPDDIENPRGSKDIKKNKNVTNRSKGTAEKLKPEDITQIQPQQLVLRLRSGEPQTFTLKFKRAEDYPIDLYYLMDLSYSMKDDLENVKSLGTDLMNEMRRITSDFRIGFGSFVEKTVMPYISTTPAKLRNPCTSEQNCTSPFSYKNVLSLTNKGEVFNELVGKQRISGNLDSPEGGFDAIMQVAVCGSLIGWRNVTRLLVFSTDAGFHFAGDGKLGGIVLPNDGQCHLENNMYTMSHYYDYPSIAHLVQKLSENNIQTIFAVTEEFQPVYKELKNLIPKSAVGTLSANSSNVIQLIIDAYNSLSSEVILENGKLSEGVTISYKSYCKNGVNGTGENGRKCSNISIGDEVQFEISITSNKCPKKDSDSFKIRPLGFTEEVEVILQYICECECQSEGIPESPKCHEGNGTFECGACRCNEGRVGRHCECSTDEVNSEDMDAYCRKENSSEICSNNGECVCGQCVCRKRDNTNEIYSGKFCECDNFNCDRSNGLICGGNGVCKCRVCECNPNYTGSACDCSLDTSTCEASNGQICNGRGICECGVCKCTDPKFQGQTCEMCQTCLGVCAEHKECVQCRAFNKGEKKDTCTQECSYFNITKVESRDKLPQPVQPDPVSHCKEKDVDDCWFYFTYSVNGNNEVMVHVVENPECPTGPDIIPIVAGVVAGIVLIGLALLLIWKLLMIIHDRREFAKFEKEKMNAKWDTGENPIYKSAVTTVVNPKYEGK

α4/β7 integrin = biological target: T1, α4/β7 integrin (Homo sapiens, UniProt P13612+P26010); assay: Inhibition of α4/β7 binding to MadCAM-1
T1 sequence (P13612 34-1032): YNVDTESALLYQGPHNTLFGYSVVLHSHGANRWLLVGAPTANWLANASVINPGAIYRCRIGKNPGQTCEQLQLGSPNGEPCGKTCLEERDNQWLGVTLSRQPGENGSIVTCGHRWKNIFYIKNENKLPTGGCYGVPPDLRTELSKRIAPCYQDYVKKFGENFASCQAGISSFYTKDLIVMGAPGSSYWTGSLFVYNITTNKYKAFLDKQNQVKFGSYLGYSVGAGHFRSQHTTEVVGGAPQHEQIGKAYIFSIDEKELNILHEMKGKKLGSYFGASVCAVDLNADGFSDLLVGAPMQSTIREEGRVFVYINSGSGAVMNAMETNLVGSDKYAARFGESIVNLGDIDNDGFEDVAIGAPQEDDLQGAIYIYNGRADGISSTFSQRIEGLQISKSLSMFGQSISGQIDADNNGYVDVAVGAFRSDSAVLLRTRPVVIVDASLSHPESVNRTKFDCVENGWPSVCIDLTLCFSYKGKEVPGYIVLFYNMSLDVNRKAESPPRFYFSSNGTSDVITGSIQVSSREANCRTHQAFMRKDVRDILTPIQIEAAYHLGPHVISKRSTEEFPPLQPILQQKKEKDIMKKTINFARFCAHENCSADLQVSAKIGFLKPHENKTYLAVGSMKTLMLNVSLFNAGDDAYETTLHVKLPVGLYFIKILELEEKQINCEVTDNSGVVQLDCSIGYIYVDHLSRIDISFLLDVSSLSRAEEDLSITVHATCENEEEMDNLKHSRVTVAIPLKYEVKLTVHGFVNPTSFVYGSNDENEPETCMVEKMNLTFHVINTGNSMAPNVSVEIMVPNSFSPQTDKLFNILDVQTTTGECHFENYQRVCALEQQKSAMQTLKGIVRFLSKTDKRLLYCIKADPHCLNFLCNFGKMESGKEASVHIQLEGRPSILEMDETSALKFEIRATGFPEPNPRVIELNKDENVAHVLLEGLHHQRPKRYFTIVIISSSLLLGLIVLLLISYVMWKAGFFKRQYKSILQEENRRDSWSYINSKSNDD
T1 sequence (P26010 20-798): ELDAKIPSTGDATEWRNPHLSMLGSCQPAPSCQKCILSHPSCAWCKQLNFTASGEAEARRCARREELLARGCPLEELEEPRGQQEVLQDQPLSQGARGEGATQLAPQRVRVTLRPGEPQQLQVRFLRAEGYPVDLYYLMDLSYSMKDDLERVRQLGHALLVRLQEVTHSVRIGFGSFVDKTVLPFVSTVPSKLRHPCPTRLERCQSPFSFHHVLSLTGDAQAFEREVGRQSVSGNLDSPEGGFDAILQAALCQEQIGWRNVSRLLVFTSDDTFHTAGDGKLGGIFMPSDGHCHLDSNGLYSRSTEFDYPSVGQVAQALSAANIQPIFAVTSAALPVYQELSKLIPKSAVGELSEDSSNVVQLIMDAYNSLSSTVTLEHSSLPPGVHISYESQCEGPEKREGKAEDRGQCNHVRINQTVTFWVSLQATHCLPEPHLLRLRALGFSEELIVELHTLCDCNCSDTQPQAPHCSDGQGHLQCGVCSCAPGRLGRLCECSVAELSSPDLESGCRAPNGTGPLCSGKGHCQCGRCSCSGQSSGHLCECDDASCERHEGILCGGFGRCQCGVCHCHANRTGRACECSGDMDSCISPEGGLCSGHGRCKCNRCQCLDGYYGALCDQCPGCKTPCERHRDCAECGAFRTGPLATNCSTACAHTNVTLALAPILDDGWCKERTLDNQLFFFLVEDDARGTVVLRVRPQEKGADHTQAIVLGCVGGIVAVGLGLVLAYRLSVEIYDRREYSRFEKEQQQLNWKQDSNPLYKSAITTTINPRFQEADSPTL

[3] = 12-week monotherapy, versus placebo

## CCN(CC)CCOC(=O)[C@H](Cc1ccc(NC(=O)c2c(Cl)cccc2Cl)cc1)NC(=O)c1c(C)cccc1Cl [R411, N-(2-Chloro-6-methylbenzoyl)-4-[(2,6-dichlorobenzoyl)amino]-L-phenylalanine-2-(diethylamino)ethyl ester]
[1]; [3]
  decrease in daytime asthma symptom score: Statistically significant improvements
  decrease in nocturnal symptom score: Statistically significant improvements
[1]; R411 200 mg once daily
  Asthma control Questionnaire (Total Score), change from baseline: −0.29 [2.08] Total Score
  Morning asthma symptoms, change from baseline: −0.34*[1.55]
[1]; R411 200 mg once daily, N = 117
  Rescue β2-agonist use (puffs/d), change from baseline: −0.36/[3.04] puffs/d
[1]; R411 600 mg once daily
  Asthma control Questionnaire (Total Score), change from baseline: −0.23 [2.00] Total Score
  Morning asthma symptoms, change from baseline: −0.33*[1.57]
[1]; R411 600 mg once daily, N = 119
  Rescue β2-agonist use (puffs/d), change from baseline: −0.41*/[3.11] puffs/d
[1]; compared to placebo
  Asthma Control Questionnaire Scores: Improvement
  Asthma Quality-of-Life: Improvement
[2]
  airway inflammation: attenuates
α4/β1 integrin
  binding of α4/β1 to vascular cell adhesion molecule (VCAM-1): inhibits
  effectiveness against α4/β1 integrin: effective
α4/β7 integrin
  binding of α4/β7 to MadCAM-1: inhibits
  effectiveness against α4/β7 integrin: effective
